± gives the expanded uncertainty stated by the source.
Key:
[1] = Solid-liquid equilibrium temperature
[2] = Crystal 2; DTA

Structure (SMILES) | Triple point temperature [2] [K] | Solid-liquid equilibrium temperature ([1]; 10000 kPa, Crystal 1, DTA) [K] | Solid-liquid equilibrium temperature ([1]; 10000 kPa, Crystal 2, DTA) [K] | Solid-liquid equilibrium temperature ([1]; 25000 kPa, Crystal 1, DTA) [K] | Solid-liquid equilibrium temperature ([1]; 25000 kPa, Crystal 2, DTA) [K] | Solid-liquid equilibrium temperature ([1]; 50000 kPa, Crystal 1, DTA) [K] | Solid-liquid equilibrium temperature ([1]; 50000 kPa, Crystal 2, DTA) [K] | Solid-liquid equilibrium temperature ([1]; 100000 kPa, Crystal 1, DTA) [K] | Solid-liquid equilibrium temperature ([1]; 125000 kPa, Crystal 1, DTA) [K] | Solid-liquid equilibrium temperature ([1]; 150000 kPa, Crystal 1, DTA) [K] | also measured
CCCCCCCCCCCCCCCCCCCC [eicosane] |  |  |  |  |  |  |  |  |  |  | Solid-liquid equilibrium temperature ([1]; 33520 kPa, Crystal, DTA): 318.15 ± 0.33 K; Solid-liquid equilibrium temperature ([1]; 55080 kPa, Crystal, DTA): 323.15 ± 0.35 K; Solid-liquid equilibrium temperature ([1]; 76800 kPa, Crystal, DTA): 328.15 ± 0.37 K; Solid-liquid equilibrium temperature ([1]; 99090 kPa, Crystal, DTA): 333.15 ± 0.38 K; Solid-liquid equilibrium temperature ([1]; 150000 kPa, Crystal, DTA): 344.91 ± 0.41 K
CCCCCCCCCCCCCCCCCCCCCCCCCCCCCCCCCCCCCCCC [tetracontane] | 376.03 ± 0.41 |  |  |  |  |  |  |  |  |  | Solid-liquid equilibrium temperature ([1]; 10000 kPa, Crystal 1): 357.34 ± 0.55 K; Solid-liquid equilibrium temperature ([1]; 10000 kPa, Crystal 2): 351.37 ± 0.54 K; Solid-liquid equilibrium temperature ([1]; 35758 kPa, Crystal 1): 363.15 ± 0.67 K; Solid-liquid equilibrium temperature ([1]; 48436 kPa, Crystal 2): 363.15 ± 0.7 K; Solid-liquid equilibrium temperature ([1]; 50000 kPa, Crystal 1): 367.26 ± 0.71 K; Solid-liquid equilibrium temperature ([1]; 50000 kPa, Crystal 2): 364.54 ± 0.7 K; Solid-liquid equilibrium temperature ([1]; 68114 kPa, Crystal 1): 371.15 ± 0.75 K; Solid-liquid equilibrium temperature ([1]; 73917 kPa, Crystal 2): 371.15 ± 0.76 K; Solid-liquid equilibrium temperature ([1]; 90000 kPa, Crystal 1): 376.58 ± 0.8 K; Solid-liquid equilibrium temperature ([1]; 112740 kPa, Crystal 1): 381.15 ± 0.84 K; Solid-liquid equilibrium temperature ([1]; 130000 kPa, Crystal 1): 385.22 ± 0.87 K
CCCCCCCCCCCCCCCCCCCCCCCC [tetracosane] | 339.59 ± 0.41 | 326.74 ± 0.31 | 324.24 ± 0.3 | 330.4 ± 0.33 | 328.4 ± 0.33 | 336.12 ± 0.36 | 334.94 ± 0.36 | 346.93 ± 0.4 | 352.26 ± 0.41 | 357.28 ± 0.42 | Solid-liquid equilibrium temperature ([1]; 40000 kPa, Crystal 1, DTA): 333.86 ± 0.35 K; Solid-liquid equilibrium temperature ([1]; 40000 kPa, Crystal 2, DTA): 332.37 ± 0.35 K
CCCCCCCCCCCCCCCCCCCCCCCCCCCCCC [triacontane] | 361.27 ± 0.41 | 341.68 ± 0.31 | 338.9 ± 0.31 | 345.34 ± 0.34 | 343.03 ± 0.34 | 351.45 ± 0.37 | 349.8 ± 0.37 | 362.54 ± 0.41 | 367.76 ± 0.42 | 372.97 ± 0.44 | Solid-liquid equilibrium temperature ([1]; 75000 kPa, Crystal 1, DTA): 357 ± 0.39 K; Solid-liquid equilibrium temperature ([1]; 75000 kPa, Crystal 2, DTA): 356.07 ± 0.39 K

Reference: the NIST ThermoML archive (doi:10.1016/j.jct.2008.07.017)
